Tests used:
[1] = test system: chemically induced forms of breast cancer; details: orally administered, animals; cited from earlier work
[2] = test system: Human Papilloma Virus (HPV) oncogene altered cervical cancer cell lines; details: cited from earlier work
RSV infected A549 cells = assay: TUNEL assay for visualization of apoptosis in RSV infected A549 cells; assay type: cell-based, human; details: DIM at 210 and 700 nM; 12, 18, and 24 hours post infection; data not shown
Experimental: Cell Culture—A549 cells, a tumor cell line with properties of normal airway epithelial cells, were obtained from American Type Culture Collection (ATCC, Manassas, Va.) and incubated at 37° C. in 5% CO2. The cells were cultured in Eagle's minimum essential medium (MEM, Invitrogen) supplemented with 10% fetal bovine serum (HyClone, Logan, Utah) and […] gentamicin. The A549 cells were subcultured by harvesting in 0.12% trypsin no more than 20 times from stock originally designated at pass 70. To minimize effects of exogenous growth factors or cytokines in this system, the supplemented serum concentration was reduced to 0.5% 24 h prior to and during all experiments with RSV infection.
RSV Virus—RSV, strain A2, was obtained from Advanced Biotechnologies Inc. (Columbia, Md.) and was used directly as supplied for all experiments. The viral preparation was tested to have a TCID50 titer of ˜1×10^9 in Hep-2 cells at 7 days. Sterile vials of the RSV preparation were supplied in MEM supplemented with 10% fetal calf serum, stored at −135° C. and rapidly thawed at 37° C. immediately prior to use. […]
Apotosis in RSV infected A549 cells cultured with and without DIM was further studied using the TUNEL assay for visualization of apoptosis. […] To remove unincorporated dUTP, slides were washed three times 15 min each with 2×SSC and three times with PBS, and then viewed in a fluorescence microscope. […]

RSV Long strain = assay: Pulmonary histopathology in RSV infected BALB/c mice; assay type: in vivo; details: DIM administered orally or parenterally
Experimental: The Following Experimental BALB/c Groups and Treatment Protocol Using DIM were Studied: • 1. RSV infected positive control group, infected with RSV and injected subcutaneously (SC) once daily with DMSO/Phosphate Buffered Saline (PBS) vehicle. • 2. RSV infected, Low dose Parenteral DIM group (15 mg/kg/day), injected SC once daily with DIM suspension • 3. RSV infected, High dose DIM Group (150 mg/kg/day), injected SC once daily with DIM suspension • 4. RSV infected, orally treated DIM group (250 mg/kg/day from absorption enhanced DIM [Example 6.1]), added to powdered feed • 5. Uninfected negative control group, nasally administered vehicle only, and injected subcutaneously (SC) once daily with DMSO/PBS vehicle
Mouse treatment, infection and harvest. […]
To determine viral titer, the lung was homogenized in DMEM supplemented with 2% FBS (2 ml DMEM per 100 mg tissue) in cold. […] Multiple, 4 μm thick sections were stained with haematoxylin & eosin (H&E) and scored for cellular inflammation under light microscopy by two independent researchers. Inflammatory infiltrates were scored by enumerating the layers of inflammatory cells surrounding the vessels and bronchioles. […] A total of about 20 spaces per lung were counted for each animal. […] The concentration of cysteinyl leukotrienes conjugates in the BALF was determined by an ELISA kit following the manufacturer's protocol (R&D Systems, Minneapolis, Minn.). […]

[3] = test system: Mitogen Activated Protein Kinase (MAPK) cell signaling pathway; details: cell culture; cited from earlier work

In the case of c1ccc2c(Cc3c[nH]c4ccccc34)c[nH]c2c1 [DIM, 3,3′-diindolylmethane], the tumor growth [1] is listed as “inhibits the growth of certain chemically induced forms of breast cancer”, the induction of apoptosis ([2]; HPV oncogene altered cervical cancer cell lines) is listed as “specifically induce apoptosis” and the “induction of markers of apoptosis compared with I3C” value ([2]; cell culture) is listed as “more active than I3C”. For the same compound, the “apoptosis in TUNEL stained photomicrographs” value (RSV infected A549 cells) was “clearly showed earlier apoptosis”, the “severity in lung pathology” value (RSV Long strain) was “reduced severity in lung pathology” and the “MAPK cell signaling pathway activation” value [3] was “activate the Mitogen Activated Protein Kinase (MAPK) cell signaling pathway”.

Source: patent US8552052B2, “Use of diindolylmethane-related indoles for the treatment and prevention of respiratory syncytial virus associated conditions” (BioResponse, L.L.C., priority 2004, dated 2013)
